Measurements: US9707305B2, “Formulas for diagnosing and treating hormone-dependent cancers and cancers of the organs responsible for steroid hormone synthesis” (Commissariat à l'énergie atomique et aux énergies …, priority 2011, dated 2017)

Assay: Biodistribution of the nano-emulsion of Example 1.1 (radioactivity and fluorescence per organ)
Type: in vivo
Method: In the following examples, the radioactivity was counted with the TRiCarb Counter (Ref: Packard, Liquid Scintillation Analyzers; Models 2200CA).
Fluobeam 700 (Fluoptics) is the apparatus with which the whole of the organs from the biodistribution were analyzed in fluorescence as well as the one with which the biodistribution kinetics of the nano-emulsions were established in vivo. This imaging system allows viewing of the fluorescence in spectral bands from 700 to 850 nm for a 650 nm excitation. The apparatus consists of an electric case containing the laser of class 3B, its power supply and an optical head containing the CCD camera.
The nano-emulsions of Example 1 were injected into FVB female and male mice. As a comparison, a mixture of three tracers ([3H]CHE, [14C]CO and DiD) (not formulated as a nano-emulsion) was injected in order to observe the distribution of the tracers in the absence of droplets being used as a distribution carrier.
Tables 6 to 14 provide the biodistribution results of each tracer ([3H]CHE, [14C]CO and DiD) expressed as a percentage of the dose injected per gram of tissue (or [3H]CHE and [14C]CO) or as fluorescence intensity (for DiD) depending on the organ of the mouse, 15 minutes (Table 6), 2 hours (Table 7), 4 hours (Table 8), 6 hours (Table 9), 16 hours (Table 10), 24 hours (Table 11), 72 hours (Table 12), 120 hours (Table 13) and 168 hours (Table 14), after injection into an FVB female mouse of the nano-emulsion of Example 1.1. (nano-emulsion according to the invention comprising the three tracers ([3H]CHE, [14C]CO and DiD).

[1] = 15 min after injection of nano-emulsion of Example 1.1, FVB female mouse
[2] = 2 h after injection of nano-emulsion of Example 1.1, FVB female mouse
[3] = 4 h after injection of nano-emulsion of Example 1.1, FVB female mouse
[4] = 16 h (Table 9 head) after injection of nano-emulsion of Example 1.1, FVB female mouse
[5] = 24 h (Table 10 head) after injection of nano-emulsion of Example 1.1, FVB female mouse
[6] = 48 h (Table 11 head) after injection of nano-emulsion of Example 1.1, FVB female mouse
[7] = 72 h after injection of nano-emulsion of Example 1.1, FVB female mouse
[8] = 120 h after injection of nano-emulsion of Example 1.1, FVB female mouse
[9] = 168 h after injection of nano-emulsion of Example 1.1, FVB female mouse

CCCCCCCCCCCCCCCCCCN1/C(=C/C=C/C=C/C2=[N+](CCCCCCCCCCCCCCCCCC)c3ccccc3C2(C)C)C(C)(C)c2ccccc21.[O-][Cl+3]([O-])([O-])[O-] [DiD, l,r-dioctadécyl-3,3,3′,3′-tetramethylindodicarbocyanine (DiD) perchlorate]
fluorescence intensity, Adrenal glands (MEAN) [1]: 457 photons per pixel, reduced to
fluorescence intensity, Brain (MEAN) [1]: 145 photons per pixel, reduced to
fluorescence intensity, Fat (MEAN) [1]: 147 photons per pixel, reduced to
fluorescence intensity, Heart (MEAN) [1]: 451 photons per pixel, reduced to
fluorescence intensity, Intestine (MEAN) [1]: 300 photons per pixel, reduced to
fluorescence intensity, Kidney (MEAN) [1]: 228 photons per pixel, reduced to
fluorescence intensity, Liver (MEAN) [1]: 979 photons per pixel, reduced to
fluorescence intensity, Lung (MEAN) [1]: 618 photons per pixel, reduced to
fluorescence intensity, Muscle (MEAN) [1]: 1 photons per pixel, reduced to
fluorescence intensity, Ovary (MEAN) [1]: 484 photons per pixel, reduced to
fluorescence intensity, Pancreas (MEAN) [1]: 216 photons per pixel, reduced to
fluorescence intensity, Salivary glands (MEAN) [1]: 59 photons per pixel, reduced to
fluorescence intensity, Spleen (MEAN) [1]: 727 photons per pixel, reduced to
fluorescence intensity, Uterus (MEAN) [1]: 178 photons per pixel, reduced to
fluorescence intensity, Adrenal glands (MEAN) [2]: 1050 photons per pixel, reduced to
fluorescence intensity, Brain (MEAN) [2]: 250 photons per pixel, reduced to
fluorescence intensity, Fat (MEAN) [2]: 247 photons per pixel, reduced to
fluorescence intensity, Heart (MEAN) [2]: 389 photons per pixel, reduced to
fluorescence intensity, Intestine (MEAN) [2]: 637 photons per pixel, reduced to
fluorescence intensity, Kidneys (MEAN) [2]: 473 photons per pixel, reduced to
fluorescence intensity, Liver (MEAN) [2]: 1421 photons per pixel, reduced to
fluorescence intensity, Lung (MEAN) [2]: 727 photons per pixel, reduced to
fluorescence intensity, Muscle (MEAN) [2]: 213 photons per pixel, reduced to
fluorescence intensity, Ovary (MEAN) [2]: 1807 photons per pixel, reduced to
fluorescence intensity, Pancreas (MEAN) [2]: 399 photons per pixel, reduced to
fluorescence intensity, Salivary glands (MEAN) [2]: 288 photons per pixel, reduced to
fluorescence intensity, Spleen (MEAN) [2]: 805 photons per pixel, reduced to
fluorescence intensity, Uterus (MEAN) [2]: 814 photons per pixel, reduced to
fluorescence intensity, Adrenal glands (MEAN) [3]: 1754 photons per pixel, reduced to
fluorescence intensity, Brain (MEAN) [3]: 279 photons per pixel, reduced to
fluorescence intensity, Fat (MEAN) [3]: 522 photons per pixel, reduced to
fluorescence intensity, Heart (MEAN) [3]: 550 photons per pixel, reduced to
fluorescence intensity, Intestine (MEAN) [3]: 974 photons per pixel, reduced to
fluorescence intensity, Kidney (MEAN) [3]: 614 photons per pixel, reduced to
fluorescence intensity, Liver (MEAN) [3]: 1845 photons per pixel, reduced to
fluorescence intensity, Lungs (MEAN) [3]: 925 photons per pixel, reduced to
fluorescence intensity, Muscle (MEAN) [3]: 236 photons per pixel, reduced to
fluorescence intensity, Ovary (MEAN) [3]: 2781 photons per pixel, reduced to
fluorescence intensity, Pancreas (MEAN) [3]: 527 photons per pixel, reduced to
fluorescence intensity, Salivary glands (MEAN) [3]: 516 photons per pixel, reduced to
fluorescence intensity, Spleen (MEAN) [3]: 955 photons per pixel, reduced to
fluorescence intensity, Uterus (MEAN) [3]: 712 photons per pixel, reduced to
fluorescence intensity, Adrenal glands (MEAN) [4]: 2355 photons per pixel, reduced to
fluorescence intensity, Brain (MEAN) [4]: 259 photons per pixel, reduced to
fluorescence intensity, Fat (MEAN) [4]: 532 photons per pixel, reduced to
fluorescence intensity, Heart (MEAN) [4]: 444 photons per pixel, reduced to
fluorescence intensity, Intestine (MEAN) [4]: 1139 photons per pixel, reduced to
fluorescence intensity, Kidney (MEAN) [4]: 627 photons per pixel, reduced to
fluorescence intensity, Liver (MEAN) [4]: 1661 photons per pixel, reduced to
fluorescence intensity, Lungs (MEAN) [4]: 592 photons per pixel, reduced to
fluorescence intensity, Muscle (MEAN) [4]: 289 photons per pixel, reduced to
fluorescence intensity, Ovary (MEAN) [4]: 2915 photons per pixel, reduced to
fluorescence intensity, Pancreas (MEAN) [4]: 564 photons per pixel, reduced to
fluorescence intensity, Salivary glands (MEAN) [4]: 641 photons per pixel, reduced to
fluorescence intensity, Spleen (MEAN) [4]: 978 photons per pixel, reduced to
fluorescence intensity, Uterus (MEAN) [4]: 1759 photons per pixel, reduced to
fluorescence intensity, Adrenal glands (MEAN) [5]: 2624 photons per pixel, reduced to
fluorescence intensity, Brain (MEAN) [5]: 239 photons per pixel, reduced to
fluorescence intensity, Fat (MEAN) [5]: 553 photons per pixel, reduced to
fluorescence intensity, Heart (MEAN) [5]: 288 photons per pixel, reduced to
fluorescence intensity, Intestine (MEAN) [5]: 777 photons per pixel, reduced to
fluorescence intensity, Kidney (MEAN) [5]: 599 photons per pixel, reduced to
fluorescence intensity, Liver (MEAN) [5]: 1675 photons per pixel, reduced to
fluorescence intensity, Lung (MEAN) [5]: 667 photons per pixel, reduced to
fluorescence intensity, Muscle (MEAN) [5]: 161 photons per pixel, reduced to
fluorescence intensity, Ovary (MEAN) [5]: 3173 photons per pixel, reduced to
fluorescence intensity, Pancreas (MEAN) [5]: 446 photons per pixel, reduced to
fluorescence intensity, Salivary glands (MEAN) [5]: 411 photons per pixel, reduced to
fluorescence intensity, Spleen (MEAN) [5]: 774 photons per pixel, reduced to
fluorescence intensity, Uterus (MEAN) [5]: 971 photons per pixel, reduced to
fluorescence intensity, Adrenal glands (MEAN) [6]: 1484 photons per pixel, reduced to
fluorescence intensity, Brain (MEAN) [6]: 51 photons per pixel, reduced to
fluorescence intensity, Fat (MEAN) [6]: 208 photons per pixel, reduced to
fluorescence intensity, Heart (MEAN) [6]: 122 photons per pixel, reduced to
fluorescence intensity, Intestine (MEAN) [6]: 481 photons per pixel, reduced to
fluorescence intensity, Kidney (MEAN) [6]: 555 photons per pixel, reduced to
fluorescence intensity, Liver (MEAN) [6]: 1868 photons per pixel, reduced to
fluorescence intensity, Lungs (MEAN) [6]: 212 photons per pixel, reduced to
fluorescence intensity, Muscle (MEAN) [6]: 32 photons per pixel, reduced to
fluorescence intensity, Ovary (MEAN) [6]: 4018 photons per pixel, reduced to
fluorescence intensity, Pancreas (MEAN) [6]: 202 photons per pixel, reduced to
fluorescence intensity, Salivary glands (MEAN) [6]: 268 photons per pixel, reduced to
fluorescence intensity, Spleen (MEAN) [6]: 342 photons per pixel, reduced to
fluorescence intensity, Uterus (MEAN) [6]: 951 photons per pixel, reduced to
fluorescence intensity, Adrenal glands (MEAN) [7]: 1135 photons per pixel, reduced to
fluorescence intensity, Brain (MEAN) [7]: 43 photons per pixel, reduced to
fluorescence intensity, Fat (MEAN) [7]: 159 photons per pixel, reduced to
fluorescence intensity, Heart (MEAN) [7]: 113 photons per pixel, reduced to
fluorescence intensity, Intestine (MEAN) [7]: 297 photons per pixel, reduced to
fluorescence intensity, Kidney (MEAN) [7]: 365 photons per pixel, reduced to
fluorescence intensity, Liver (MEAN) [7]: 1136 photons per pixel, reduced to
fluorescence intensity, Lungs (MEAN) [7]: 120 photons per pixel, reduced to
fluorescence intensity, Muscle (MEAN) [7]: 3 photons per pixel, reduced to
fluorescence intensity, Ovary (MEAN) [7]: 2397 photons per pixel, reduced to
fluorescence intensity, Pancreas (MEAN) [7]: 102 photons per pixel, reduced to
fluorescence intensity, Salivary glands (MEAN) [7]: 237 photons per pixel, reduced to
fluorescence intensity, Spleen (MEAN) [7]: 330 photons per pixel, reduced to
fluorescence intensity, Uterus (MEAN) [7]: 514 photons per pixel, reduced to
fluorescence intensity, Adrenal gland (MEAN) [8]: 1688 photons per pixel, reduced to
fluorescence intensity, Brain (MEAN) [8]: 90 photons per pixel, reduced to
fluorescence intensity, Fat (MEAN) [8]: 176 photons per pixel, reduced to
fluorescence intensity, Heart (MEAN) [8]: 80 photons per pixel, reduced to
fluorescence intensity, Intestine (MEAN) [8]: 279 photons per pixel, reduced to
fluorescence intensity, Kidney (MEAN) [8]: 383 photons per pixel, reduced to
fluorescence intensity, Liver (MEAN) [8]: 996 photons per pixel, reduced to
fluorescence intensity, Lungs (MEAN) [8]: 53 photons per pixel, reduced to
fluorescence intensity, Muscle (MEAN) [8]: 254 photons per pixel, reduced to
fluorescence intensity, Ovary (MEAN) [8]: 2319 photons per pixel, reduced to
fluorescence intensity, Pancreas (MEAN) [8]: 297 photons per pixel, reduced to
fluorescence intensity, Salivary glands (MEAN) [8]: 120 photons per pixel, reduced to
fluorescence intensity, Spleen (MEAN) [8]: 229 photons per pixel, reduced to
fluorescence intensity, Uterus (MEAN) [8]: 563 photons per pixel, reduced to
fluorescence intensity, Adrenal glands (MEAN) [9]: 660.62 photons per pixel, reduced to
fluorescence intensity, Brain (MEAN) [9]: 40.28 photons per pixel, reduced to
fluorescence intensity, Fat (MEAN) [9]: 164.55 photons per pixel, reduced to
fluorescence intensity, Heart (MEAN) [9]: 117.29 photons per pixel, reduced to
fluorescence intensity, Intestine (MEAN) [9]: 214.02 photons per pixel, reduced to
fluorescence intensity, Kidneys (MEAN) [9]: 391.45 photons per pixel, reduced to
fluorescence intensity, Liver (MEAN) [9]: 676.60 photons per pixel, reduced to
fluorescence intensity, Lungs (MEAN) [9]: 1.35 photons per pixel, reduced to
fluorescence intensity, Muscle (MEAN) [9]: 16.21 photons per pixel, reduced to
fluorescence intensity, Ovary (MEAN) [9]: 1614.45 photons per pixel, reduced to
fluorescence intensity, Pancreas (MEAN) [9]: 125.11 photons per pixel, reduced to
fluorescence intensity, Salivary glands (MEAN) [9]: 216.84 photons per pixel, reduced to
fluorescence intensity, Spleen (MEAN) [9]: 171.93 photons per pixel, reduced to
fluorescence intensity, Uterus (MEAN) [9]: 697.92 photons per pixel, reduced to
